# Source: patent US9605029B2, “Antibody-binding peptide” (NATIONAL INSTITUTE OF ADVANCED INDUSTRIAL SCIENCE AND …, priority 2013, dated 2017)
# Read-outs that look alike come from different tables or passages of the source. Ends that are not written are not given here.
# How the values were obtained:
# [1] = target: T1, Fc region prepared by digesting human monoclonal antibody IgG with papain (Homo sapiens, UniProt P01857); experiment: Surface plasmon resonance, polypeptides on immobilized Fc region prepared from human monoclonal IgG (Example 2, 3) and 4); Example 8); format: binding
# T1 construct: The Fc region to be immobilized to a sensor chip was prepared, by digesting human monoclonal antibody IgG with papain; made in house; host or cells: papain digest of human monoclonal IgG (Pierce Fab Preparation Kit), then MabSelect SuRe, HiTrap DEAE and Superdex 200
# Method: The polypeptides, which were previously synthesized in an organic chemical manner were purchased from bio[…], were diluted with HBS-T buffer and controlled so as to have a concentration of 500, 400, 300, 200 or 100 nM. The surface plasmon resonance test was performed by using Biacore T100 (GE Healthcare). The Fc region to be immobilized to a sensor chip was prepared, by digesting human monoclonal antibody IgG with papain, in accordance with the instruction attached to Pierce (registered trade mark) Fab Preparation Kit (Thermo […]), followed by purifying by affinity chromatography using MabSelect SuRe (GE Healthcare), HiTrap DEAE anion exchange chromatography (GE Healthcare) and gel filtration chromatography using Superdex 200 (GE Healthcare). The Fc region prepared was immobilized to Sensor Chip CM5 (GE Healthcare) by the amine coupling method. The binding activity of the synthesized peptides prepared was measured and equilibrium dissociation constants were determined. Data were processed by use of Biacore TOO Evaluation Software (GE Healthcare).
# 4) In this section, it will be stated as an example that the binding activity of a polypeptide consisting of an amino acid sequence (referred to as p17) of SEQ ID NO: 57 was measured by surface plasmon resonance. The polypeptide was prepared by cleaving thioredoxin fusion protein p17_trx consisting of the amino acid sequence of SEQ ID NO: 86 with a protease and removing a thioredoxin portion. Since the thioredoxin fusion protein, which is produced by expression vector pET-48b (Novagen), has an HRV 3C protease cleavage site in the amino acid sequence, the desired polypeptide ligated to the C terminal can be obtained by use of protease.
# DNA (SEQ ID NO: 124) encoding the thioredoxin fusion protein (SEQ ID NO: 86) containing p17 was synthesized by PCR and introduced to an expression vector, pET-48b (Novagen). Using the expression vector and in accordance with the same procedure as in Example, 1, 5), the thioredoxin fusion protein was prepared. The thioredoxin fusion protein (40 mg) was digested with 100 units of HRV 3C Protease (Novagen) at 4° C. under the reaction conditions according to the accompanying manual. The digested product was diluted in a 6 M guanidine hydrochloride solution and purified by gel filtration chromatography using Superdex Peptide 10/300 GL (GE Healthcare). Subsequently reverse phase chromatography using μRPC C2/C18 ST 4.6/100 (GE Healthcare) was performed to prepare a polypeptide p17 consisting of an amino acid sequence of SEQ ID NO: 57.
# Subsequently, the binding activity of p17 prepared was measured by surface plasmon resonance by use of Biacore T100 (GE Healthcare).
# Subsequently, the binding activity of five types of polypeptides prepared above was analyzed by surface plasmon resonance. Biacore T100 (GE Healthcare) was used in measurement. […]
# IgG [2] = conditions: domains by themselves; Non Patent Literature 28 and 29; cited from earlier work
# IgG [3] = conditions: Non Patent Literature 4; read-out: equilibrium dissociation constant, KD; cited from earlier work
# human IgG = conditions: competitive reaction with protein A; read-out: competitive inhibitory capacity Ki; cited from earlier work
# [4] = target: human Fc region manufactured by Jackson ImmunoResearch Laboratories, Inc.; experiment: Surface plasmon resonance, synthetic polypeptides on immobilized human Fc region (Example 1, 4); format: binding; conditions: synthetic polypeptide, 25° C., HBS-T buffer pH 7.4
# Method: The polypeptides previously synthesized in an organic chemical manner were purchased from bio[…]. Biacore T100 (GE Healthcare) was used as a surface plasmon resonance measurement apparatus. The human Fc region manufactured by Jackson ImmunoResearch Laboratories, Inc. was immobilized to Sensor Chip CM5 (GE Healthcare) in accordance with an amine coupling method using an Amine Coupling Kit (GE Healthcare). […] The binding activity of these polypeptides was measured at a reaction temperature of 25° C. The measurement data were processed by Biacore TOO Evaluation Software (GE Healthcare).
# rabbit IgG = conditions: Non Patent Literature 5; cited from earlier work
# rabbit IgG, sequence (P01870 101-323 limits assumed): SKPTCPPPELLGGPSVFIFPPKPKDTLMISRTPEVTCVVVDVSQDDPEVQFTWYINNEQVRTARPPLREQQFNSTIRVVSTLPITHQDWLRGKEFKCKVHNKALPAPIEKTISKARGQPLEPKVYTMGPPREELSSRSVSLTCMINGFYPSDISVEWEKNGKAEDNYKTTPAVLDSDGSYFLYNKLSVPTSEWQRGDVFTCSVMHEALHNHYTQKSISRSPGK
# [5] = variant polypeptide with alanine substitution, read-out: Equilibrium dissociation constant of p17 variant KD
# [6] = synthetic polypeptide, read-out: equilibrium dissociation constants KD
# [7] = read-out: equilibrium dissociation constant KD
substance,measurement,setting,value
GPGISAFSPGRGVYDPETGTWYDAAWHLGELVWATYYDPETGTWEPDWQAMLGQ [SEQ ID NO: 177],Kd,[1]; [5],7.8 nM
GPGISAFSPGRGVYDPETGTWYDAAWHLGELVWATYYDPETGTWEPAWQRMLGQ [SEQ ID NO: 175],Kd,[1]; [5],45 nM
DAAWHLGELVWATYYDPETGTWAPDWRLMQGQ [SEQ ID NO: 25],Kd,[1]; [6],510 nM
DAAWHLGELVWATYYDPETGTWLPDWQTMAQK [SEQ ID NO: 26],Kd,[1]; [6],100 nM
"protein G: bacteria-derived natural IgG-binding protein, conventionally used",Kd,IgG [2],~490 nM
GPGISAFSPGRGVYDPETGTWYDAAWHLGELVWATYYDPETGTWEADWQRMLGQ [SEQ ID NO: 174],Kd,[1]; [5],5.6 nM
Asp Cys Ala Trp His Leu Gly Glu Leu Val Trp Cys Thr [Fc-III],Kd,IgG [3],185 nM
same,Ki,human IgG,100 nM
GVVRQWSGGGGSGGGGRSSIAYGGG [SEQ ID NO: 21],Kd,[4]; [7],23000 nM
DAAWHLGELVWATYYDPETGTWQPDWLYMTTR [SEQ ID NO: 24],Kd,"[1]; synthetic polypeptide, read-out: KD",120 nM
RSSIAYGGG [SEQ ID NO: 22],Kd,[4]; read-out: KD,110000 nM
same,Kd,[4]; [7],110000 nM
GPGISAFSPGRGVYDPETGTWYDAAWHLGELVWATYYDPETGTWEPDAQRMLGQ [SEQ ID NO: 176],Kd,[1]; [5],200 nM
"protein A: IgG-binding protein derived from Staphylococcus, conventionally used",Kd,IgG [2],~10 nM
GPGISAFSPGRGVYDPETGTWYDAAWHLGELVWATYYDPETGTWEPDWQRMLGQ [SEQ ID NO: 57],Kd,"[1]; polypeptide obtained by protease cleavage of p17_trx, read-out: KD",1.6 nM
same,Kd,"[1]; polypeptide obtained by protease cleavage of p17_trx, read-out: equilibrium dissociation constant KD",1.6 nM
"peptide from a synthesized branched tetrapolypeptide library (Arg Thr Xaa)4 Lys2 Lys Gly, competitively works with protein A (Fassina et al.) [TG19318]",Kd,rabbit IgG,300 nM
